Assay results reported in US20260327191A1, “GSK3a INHIBITORS AND METHODS OF USE THEREOF” (Blueprint Medicines Corporation, priority 2023, published 2026).
Like-named read-outs stand apart in the source and are kept apart here.

Experiments:
GSK3B [1] = biological target: T1, GSK3B (Homo sapiens, UniProt P49841); experiment: In vitro enzymatic activity assay, GSK3β; type: biochemical; parameters: Full length human GSK3α or GSK3B expressed as N-terminal GST fusion proteins; GST (N); purchased Carna Biosciences (Japan); host or cells: baculovirus host; conditions: 1.0 mM ATP, 1.0 μM peptide substrate, 120 min, 25° C
GSK3A = biological target: T2, GSK3A (Homo sapiens, UniProt P49840); experiment: NanoBRET cellular target engagement assay, Nanoluc-GSK3A in HEK293 cells; type: cell-based; conditions: NanoBRET GSK3α IC50, HEK293 cells, tracer K-8, 2 hours, 37° C
T2 construct: expressed in transfected cells

GSK3B [2] = biological target: T1, GSK3B; experiment: NanoBRET cellular target engagement assay, Nanoluc-GSK3B in HEK293 cells; type: cell-based; parameters: expressed in transfected cells; conditions: NanoBRET GSK3β IC50, HEK293 cells, tracer K-8, 2 hours, 37° C
human GSK3α = biological target: T3, human GSK3α (Homo sapiens, UniProt P49840); experiment: In vitro enzymatic activity assay, GSK3α; type: biochemical; conditions: 1.0 mM ATP, 1.0 μM peptide substrate, 120 min, 25° C
T3 construct: Full length human GSK3α or GSK3B expressed as N-terminal GST fusion proteins; GST (N); purchased Carna Biosciences (Japan); host or cells: baculovirus host
T3 sequence (P49840 whole entry, the tested form may be a part): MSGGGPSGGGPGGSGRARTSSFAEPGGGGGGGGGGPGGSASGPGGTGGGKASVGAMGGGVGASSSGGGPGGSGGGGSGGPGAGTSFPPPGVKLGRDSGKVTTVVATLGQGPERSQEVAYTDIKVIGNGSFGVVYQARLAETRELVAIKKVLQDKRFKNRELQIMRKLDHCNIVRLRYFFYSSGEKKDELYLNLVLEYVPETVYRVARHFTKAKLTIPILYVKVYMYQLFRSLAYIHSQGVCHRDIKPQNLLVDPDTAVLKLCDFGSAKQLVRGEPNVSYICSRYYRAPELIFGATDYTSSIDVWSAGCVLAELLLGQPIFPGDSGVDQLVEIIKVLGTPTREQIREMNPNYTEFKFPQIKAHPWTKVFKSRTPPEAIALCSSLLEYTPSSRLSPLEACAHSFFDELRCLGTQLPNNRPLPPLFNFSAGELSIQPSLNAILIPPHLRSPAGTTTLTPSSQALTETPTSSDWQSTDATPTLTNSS

T2 sequence (P49840 whole entry): as the sequence (P49840 whole entry, the tested form may be a part) above
T1 sequence (P49841 whole entry, the tested form may be a part): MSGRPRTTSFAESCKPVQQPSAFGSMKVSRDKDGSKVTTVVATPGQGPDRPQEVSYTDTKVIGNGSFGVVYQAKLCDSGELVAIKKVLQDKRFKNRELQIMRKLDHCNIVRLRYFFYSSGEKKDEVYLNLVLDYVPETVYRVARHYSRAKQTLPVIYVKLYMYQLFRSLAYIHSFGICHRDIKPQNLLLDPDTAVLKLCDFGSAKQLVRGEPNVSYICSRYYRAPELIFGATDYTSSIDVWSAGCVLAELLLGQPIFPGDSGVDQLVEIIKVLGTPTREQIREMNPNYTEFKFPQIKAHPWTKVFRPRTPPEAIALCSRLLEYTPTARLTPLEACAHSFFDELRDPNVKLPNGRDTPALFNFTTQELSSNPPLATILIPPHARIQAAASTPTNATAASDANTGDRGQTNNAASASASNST

Compound	IC50 (GSK3B [1]; Enzyme GSK3β (IC50))	IC50 (GSK3A)	IC50 (GSK3B [2])	IC50 (human GSK3α; Enzyme GSK3α (IC50))	IC50 (GSK3B [1]; read-out: Enzyme GSK3β (IC50))	IC50 (human GSK3α; read-out: Enzyme GSK3α (IC50))
CCOc1cc(C)c(-n2cnc(N)c(C(=O)Nc3cnnc(C(N)=O)c3)c2=O)c(C)c1 [Example 29, 5-(4-amino-1-(4-ethoxy-2,6-dimethylphenyl)-6-oxo-1,6-dihydropyrimidine-5-carboxamido)pyridazine-3-carboxamide]	3.8 µM	0.0792 µM	25 µM	0.0922 µM	–	–
COCc1cc(C)c(-n2cnc(N)c(C(=O)Nc3cnnc(C(N)=O)c3)c2=O)c(C)c1 [Example 30, 5-(4-amino-1-(4-(methoxymethyl)-2,6-dimethylphenyl)-6-oxo-1,6-dihydropyrimidine-5-carboxamido)pyridazine-3-carboxamide]	–	0.0722 µM	15.8 µM	–	1.95 µM	0.0639 µM
COc1cc(Cl)c(-n2cnc(N)c(C(=O)Nc3cncc([C@@H]4CCCCN4)c3)c2=O)c(Cl)c1 [Example 34, (S)-4-amino-1-(2,6-dichloro-4-methoxyphenyl)-6-oxo-N-(5-(piperidin-2-yl)pyridin-3-yl)-1,6-dihydropyrimidine-5-carboxamide]	–	0.0037 µM	0.268 µM	–	0.344 µM	0.0065 µM
COc1cc(C)c(-n2cnc(N)c(C(=O)Nc3cccc(C4(N)CCC4)c3)c2=O)c(Cl)c1 [Example 38, 4-amino-N-(3-(1-aminocyclobutyl)phenyl)-1-((S)-2-chloro-4-methoxy-6-methylphenyl)-6-oxo-1,6-dihydropyrimidine-5-carboxamide]	–	0.0036 µM	0.23 µM	–	0.282 µM	0.0046 µM
Nc1ncn(-c2c(Cl)cccc2Cl)c(=O)c1C(=O)Nc1cncc([C@@H]2CCCN2)c1 [Example 40, (S)-4-amino-1-(2,6-dichlorophenyl)-6-oxo-N-(5-(pyrrolidin-2-yl)pyridin-3-yl)-1,6-dihydropyrimidine-5-carboxamide]	–	0.0058 µM	0.431 µM	–	0.418 µM	0.0101 µM
Cc1cc(Cl)c(-n2cnc(N)c(C(=O)Nc3cncc([C@@H]4CCCN4)c3)c2=O)c(Cl)c1 [Example 45, (S)-4-amino-1-(2,6-dichloro-4-methylphenyl)-6-oxo-N-(5-(pyrrolidin-2-yl)pyridin-3-yl)-1,6-dihydropyrimidine-5-carboxamide]	–	0.0066 µM	0.365 µM	–	0.384 µM	0.0085 µM
Nc1ncn(-c2c(Cl)cc(OC(F)F)cc2Cl)c(=O)c1C(=O)Nc1cncc([C@@H]2CCCCN2)c1 [Example 46, (S)-4-amino-1-(2,6-dichloro-4-(difluoromethoxy)phenyl)-6-oxo-N-(5-(piperidin-2-yl)pyridin-3-yl)-1,6-dihydropyrimidine-5-carboxamide]	–	0.0073 µM	0.395 µM	–	0.489 µM	0.0105 µM
Nc1ncn(-c2c(Cl)cc(Cl)cc2Cl)c(=O)c1C(=O)Nc1cncc([C@@H]2CCCCN2)c1 [Example 48, (S)-4-amino-6-oxo-N-(5-(piperidin-2-yl)pyridin-3-yl)-1-(2,4,6-trichlorophenyl)-1,6-dihydropyrimidine-5-carboxamide]	–	0.0047 µM	0.298 µM	–	0.343 µM	0.0052 µM
Nc1ncn(-c2c(Cl)cc(C(F)F)cc2Cl)c(=O)c1C(=O)Nc1cccc([C@@H]2CCCN2)c1 [Example 54, (S)-4-amino-1-(2,6-dichloro-4-(difluoromethyl)phenyl)-6-oxo-N-(3-(pyrrolidin-2-yl)phenyl)-1,6-dihydropyrimidine-5-carboxamide]	–	0.0054 µM	0.34 µM	–	0.345 µM	0.0054 µM
Nc1ncn(-c2c(Cl)cc(C(F)F)cc2Cl)c(=O)c1C(=O)Nc1cncc([C@@H]2CCCN2)c1 [Example 55, (S)-4-amino-1-(2,6-dichloro-4-(difluoromethyl)phenyl)-6-oxo-N-(5-(pyrrolidin-2-yl)pyridin-3-yl)-1,6-dihydropyrimidine-5-carboxamide]	–	0.0065 µM	0.483 µM	–	0.43 µM	0.0091 µM
Nc1ncn(-c2c(Cl)cc(C(F)F)cc2Cl)c(=O)c1C(=O)Nc1cncc([C@@H]2CCCCN2)c1 [Example 56, (S)-4-amino-1-(2,6-dichloro-4-(difluoromethyl)phenyl)-6-oxo-N-(5-(piperidin-2-yl)pyridin-3-yl)-1,6-dihydropyrimidine-5-carboxamide]	–	0.0048 µM	0.273 µM	–	0.323 µM	0.0057 µM
CCOc1cc(C)c(-n2cnc(N)c(C(=O)Nc3cncc([C@H]4CCCCN4)c3)c2=O)c(C)c1 [Example 91, (R)-4-amino-1-(4-ethoxy-2,6-dimethylphenyl)-6-oxo-N-(5-(piperidin-2-yl)pyridin-3-yl)-1,6-dihydropyrimidine-5-carboxamide]	–	0.0037 µM	0.201 µM	–	0.299 µM	0.006 µM
CCC[C@@H](N)c1cncc(NC(=O)c2c(N)ncn(-c3c(C)cc(OCC)cc3C)c2=O)c1 [Example 94, (R)-4-amino-N-(5-(1-aminobutyl)pyridin-3-yl)-1-(4-ethoxy-2,6-dimethylphenyl)-6-oxo-1,6-dihydropyrimidine-5-carboxamide]	–	0.0066 µM	0.384 µM	–	0.598 µM	0.0076 µM

Continued, values first:

IC50 (GSK3B [1]; Enzyme GSK3β (IC50))	IC50 (GSK3A)	IC50 (GSK3B [2])	IC50 (human GSK3α; Enzyme GSK3α (IC50))	IC50 (GSK3B [1]; read-out: Enzyme GSK3β (IC50))	IC50 (human GSK3α; read-out: Enzyme GSK3α (IC50))	Compound
–	0.0025 µM	0.132 µM	–	0.209 µM	0.0044 µM	NCc1cncc(NC(=O)c2c(N)ncn(-c3c(Cl)cc(OC4CC4)cc3Cl)c2=O)c1 [Example 52, 4-amino-N-(5-(aminomethyl)pyridin-3-yl)-1-(2,6-dichloro-4-cyclopropoxyphenyl)-6-oxo-1,6-dihydropyrimidine-5-carboxamide]
–	0.003 µM	0.2 µM	–	0.334 µM	0.0065 µM	CCNCc1cncc(NC(=O)c2c(N)ncn(-c3c(Cl)cc(COC)cc3Cl)c2=O)c1 [Example 60, 4-amino-1-(2,6-dichloro-4-(methoxymethyl)phenyl)-N-(5-((ethylamino)methyl)pyridin-3-yl)-6-oxo-1,6-dihydropyrimidine-5-carboxamide]
–	0.0037 µM	0.284 µM	–	0.466 µM	0.0064 µM	COCc1cc(Cl)c(-n2cnc(N)c(C(=O)Nc3cncc([C@@H]4CCCCN4)c3)c2=O)c(Cl)c1 [Example 61, (S)-4-amino-1-(2,6-dichloro-4-(methoxymethyl)phenyl)-6-oxo-N-(5-(piperidin-2-yl)pyridin-3-yl)-1,6-dihydropyrimidine-5-carboxamide]
–	0.0044 µM	0.234 µM	–	0.209 µM	0.0045 µM	COCc1cc(Cl)c(-n2cnc(N)c(C(=O)Nc3cncc(CNCCO)c3)c2=O)c(Cl)c1 [Example 63, 4-amino-1-(2,6-dichloro-4-(methoxymethyl)phenyl)-N-(5-(((2-hydroxyethyl)amino)methyl)pyridin-3-yl)-6-oxo-1,6-dihydropyrimidine-5-carboxamide]
–	0.0065 µM	0.489 µM	–	0.621 µM	0.0117 µM	COCc1cc(Cl)c(-n2cnc(N)c(C(=O)Nc3cncc(CNC(C)C)c3)c2=O)c(Cl)c1 [Example 64, 4-amino-1-(2,6-dichloro-4-(methoxymethyl)phenyl)-N-(5-((isopropylamino)methyl)pyridin-3-yl)-6-oxo-1,6-dihydropyrimidine-5-carboxamide]
–	0.0031 µM	0.217 µM	–	0.302 µM	0.0051 µM	COCc1cc(Cl)c(-n2cnc(N)c(C(=O)Nc3cncc(C4(N)CCC4)c3)c2=O)c(Cl)c1 [Example 65, 4-amino-N-(5-(1-aminocyclobutyl)pyridin-3-yl)-1-(2,6-dichloro-4-(methoxymethyl)phenyl)-6-oxo-1,6-dihydropyrimidine-5-carboxamide]
–	0.0058 µM	0.374 µM	–	0.318 µM	0.0067 µM	COc1cc(Cl)c(-n2cnc(N)c(C(=O)Nc3cncc([C@@H]4CCCN4)c3)c2=O)c(Cl)c1 [Example 73, (S)-4-amino-1-(2,6-dichloro-4-methoxyphenyl)-6-oxo-N-(5-(pyrrolidin-2-yl)pyridin-3-yl)-1,6-dihydropyrimidine-5-carboxamide]
–	0.0035 µM	0.196 µM	–	0.152 µM	0.0022 µM	COC[C@@H](N)c1cncc(NC(=O)c2c(N)ncn(-c3c(Cl)cc(OC)cc3Cl)c2=O)c1 [Example 77, (S)-4-amino-N-(5-(1-amino-2-methoxyethyl)pyridin-3-yl)-1-(2,6-dichloro-4-methoxyphenyl)-6-oxo-1,6-dihydropyrimidine-5-carboxamide]
–	0.0042 µM	0.321 µM	–	0.414 µM	0.0066 µM	CCCOc1cc(Cl)c(-n2cnc(N)c(C(=O)Nc3cncc(CNCC)c3)c2=O)c(Cl)c1 [Example 86, 4-amino-1-(2,6-dichloro-4-propoxyphenyl)-N-(5-((ethylamino)methyl)pyridin-3-yl)-6-oxo-1,6-dihydropyrimidine-5-carboxamide]
